In patent publication US10253300B2, “Adapted rhinovirus C” (Wisconsin Alumni Research Foundation, priority 2015, dated 2019):
“Also recorded” adds a separate entry of the source.

What was measured:
C15a [1] = assay: Inhibition of virus binding and replication by preincubation with heparin, HS or glycans: C15a; type: cell-based, rhinovirus C; settings: for inhibition of virus binding to HeLa-E8 cells: heparin or HS 1-2 mg/ml preincubation
Protocol: (§1) FIGS. 4A-4E—Heparin and heparan sulfate effects. (A) Virus samples (5×10^5 PFUe) were incubated with heparin (2 mg/ml) or medium alone (no heparin) for 30 min at 34° C., before inoculation of HeLa-E8 cells. After an attachment period (30 min at room temp, 30 min at 34° C.) the cells were washed (3×PBS), harvested and tested by RT-qPCR for the attached virus RNA signals (means±s.d., n≥3). (*) indicates p<0.05 significance (t-test). (B) C15a and C15 K125 (5×10^5 PFUe) were incubated with heparin or heparan sulfate (1 mg/ml) as in A, before HeLa-E8 infections and virus binding assays. (C) The C15a experiment in A was repeated using different doses of heparin in the preincubation. (D) HeLa-E8 cells (12 well-plates) were treated (37° C., 2 h) with the indicated dose (U) of heparinase I before inoculation with C15a virus (5×10^5 PFUe) and tested for virus binding as in A. (E) C15a and recombinant C15 K125/K41 viruses (5×10^5 PFUe) were incubated with heparin (1 mg/ml, 30 min, 34° C.) before inoculation of HeLa-E8 or HeLa-H1 cells. After an attachment period (30 min at room temp, 30 min at 34° C.), the cells were washed with PBS (3×). Cells were harvested and assayed for the attached virus (1 h p.i.) and progeny virus (24 h p.i.) RNA signals by RT-qPCR (means±s.d., n=3).
FIGS. 9A-9B—Glycan effects on virus binding assays. (A) Recombinant C15 or (B) polyclonal C15a were incubated in media with the indicated sialylated glycans (1 mg/ml, see below) before being tested for binding to HeLa-E8 cells. Virus (5×10^5 PFUe) and glycan were mixed (30 min, 34° C.), then added to plated cells (30 min, room temp), before the samples were again incubated at 34° C. for an additional 30 min. The cells were washed (3×) before total RNA was extracted and assayed for C15 titer by RT-qPCR. For SNA and MALII samples, the cells, rather than virus were pretreated (100 μg/ml for 30 min, room temp) before the virus addition step. The plotted values are the averages of duplicate samples (n=2). Glycan reagents include: SLN 2-3 (3′-Sialy-N-acetyllactosamine, V-Labs, Inc), 1 mg/ml; SLN 2-6 (6′-Sialy-N-acetyllactosamine, V-Labs, Inc), 1 mg/ml; SLN 2-8 (Neu5Ac2-8Neu5Ac2-8Neu5Ac-sp-biotin, GlycoTech), 1 mg/ml; GlcNac 1-4 (GlcNAcb1-4GlcNAcb-sp-biotin, GlycoTech), 1 mg/ml; SNA (Sambucus Nigra Lectin, Vector Laboratories), 100 μg/ml; MAUI (Maackia Amurensis Lectin, Vector Laboratories), 100 μg/ml.
(§2) Purified virus (5×10^5 PFUe) was pre-incubated with tested compounds (sialic acid and sugar di- or trisaccharides, heparin or HS) for 30 min at 34° C. before inoculation of HeLa cell monolayers (30 min, room temp; 30 min, 34° C.). Cells were washed three times with PBS, lysed with the RLT buffer (Qiagen) and stored at −80° C. before total RNA extraction and RT-qPCR for C15. For SNA and MAUI samples, the cells, rather than virus were pretreated (100 μg/ml for 30 min, room temp) before the virus addition step. HeLa-E8 cells were washed with PBS containing 1 mM MgCl2 and 1 mM CaCl2 (PBS^++) and incubated for 2 hours at 37° C. with 2.5-10 U of heparinase I in PBS^++ before inoculation with purified virus (10^6 PFUe) for 1 hour at 34° C.

C15 K125 = assay: Inhibition of virus binding by preincubation with heparin or HS: C15 K125; type: cell-based, rhinovirus C; settings: for inhibition of virus binding to HeLa-E8 cells: heparin or HS 1-2 mg/ml preincubation
Protocol: as §1, §2

C15a [2] = assay: Heparinase I pretreatment of HeLa-E8 cells, virus binding: C15a; type: cell-based, rhinovirus C
Protocol: as §1, with “n=3). […]” for “n=3).”

RV-C15-K125 = assay: Heparinase I treatment, virus binding to HeLa-E8: RV-C15-K125; type: cell-based, rhinovirus C
Protocol: as §2
Receptor specificity switch has been documented for some major receptor group RVs (e.g. RV-A89) that were adapted for growth in ICAM-1-deficient cells by serial or alternate passages in HEp-2 and HeLa cells (Reischl et al., 2001; Vlasak et al., 2005). A HEp-2-adapted RV-A89 variant can utilize HS proteoglycans as a cellular receptor (Vlasak et al., 2005). […] In contrast to RV-A89, RV-C15 adaptation by passaging in HeLa cells occurred in the absence of selective pressure for binding specificity change. This process has also been observed in some other picornaviruses and alphaviruses (Sa-Carvalho et al., 1997; Klimstra et al., 1998; Smit et al., 2002). […]

A16 = assay: Inhibition of virus binding by preincubation with heparin: A16; type: cell-based, RV-A; settings: heparin 2 mg/ml preincubation
Protocol: as §1, with “n=3). […]” for “n=3).”

unadapted C15 virus = assay: Inhibition of virus binding by preincubation with heparin: unadapted C15; type: cell-based, rhinovirus C; settings: heparin 2 mg/ml preincubation
Protocol: as §1, with “n=3). […]” for “n=3).”

recombinant C15 K125/K41 = assay: Inhibition of virus binding and replication by preincubation with heparin: recombinant C15 K125/K41; type: cell-based, rhinovirus C; settings: heparin 1 mg/ml
Protocol: as §1, with “n=3). […]” for “n=3).”

Ala viruses = assay: Inhibition of virus binding by preincubation with heparin: Ala; type: cell-based; settings: heparin 2 mg/ml preincubation
Protocol: as §1, with “n=3). […]” for “n=3).”

[3] = heparin 2 mg/ml, 30 min 34° C. preincubation, 5×10^5 PFUe, HeLa-E8

Substance	inhibition of virus binding to HeLa-E8 cells (C15a [1])	inhibition of virus binding to HeLa-E8 cells (C15 K125)	reduction of C15a binding after heparinase I pretreatment of HeLa-E8 cells (C15a [2]; 2.5-10 U heparinase I, 37° C., 2 h)	inhibition of virus binding to HeLa-E8 cells (C15a [2]; heparinase I treatment)	inhibition of virus binding to HeLa-E8 cells (RV-C15-K125)	effect of heparin on virus interaction with HeLa-E8 cells (A16)	effect of heparin on virus interaction with HeLa-E8 cells (unadapted C15 virus)	effect of heparin on binding and replication in HeLa-H1 cells (recombinant C15 K125/K41; 1 h and 24 h p.i.)	replication in HeLa-E8 cells despite the heparin treatment (recombinant C15 K125/K41; 24 h p.i.)	effect of heparin on virus interaction with HeLa-E8 cells (Ala viruses)	dose dependence of inhibition of binding (C15a [1]; different doses of heparin in the preincubation, HeLa-E8)	effect of heparin on binding and replication in HeLa-H1 cells (C15a [1]; heparin 1 mg/ml, 1 h and 24 h p.i.)	replication in HeLa-E8 cells despite the heparin treatment (C15a [1]; heparin 1 mg/ml, 24 h p.i.)	reduction of binding titer by heparin (C15a [1]; [3]) [fold]	reduction of binding titer by heparin (C15 K125; [3]) [fold]
heparan sulfate [HS]	had this effect; also recorded: inhibited	had this effect; also recorded: inhibited													
heparinase I			more than 7 fold	inhibited	inhibited										
heparin	inhibited	inhibited				not affected	not affected	abolished	still replicated (to a degree)	not affected	dependent upon the dose	abolished	still replicated (to a degree)	17	44
